Measured values taken from ChEMBL document CHEMBL3232931 (J Med Chem, 2014).
The source made the active and inactive calls. The calls are words filed in the database; no cut-off is given here.

How the values were obtained:
[1] = biological target: T1, Ubiquitin carboxyl-terminal hydrolase 21 (Homo sapiens) (UniProt Q9UK80); assay: Inhibition of human USP21 using Ub-rhodamine 110 as substrate at 31 uM
T1 sequence (whole entry): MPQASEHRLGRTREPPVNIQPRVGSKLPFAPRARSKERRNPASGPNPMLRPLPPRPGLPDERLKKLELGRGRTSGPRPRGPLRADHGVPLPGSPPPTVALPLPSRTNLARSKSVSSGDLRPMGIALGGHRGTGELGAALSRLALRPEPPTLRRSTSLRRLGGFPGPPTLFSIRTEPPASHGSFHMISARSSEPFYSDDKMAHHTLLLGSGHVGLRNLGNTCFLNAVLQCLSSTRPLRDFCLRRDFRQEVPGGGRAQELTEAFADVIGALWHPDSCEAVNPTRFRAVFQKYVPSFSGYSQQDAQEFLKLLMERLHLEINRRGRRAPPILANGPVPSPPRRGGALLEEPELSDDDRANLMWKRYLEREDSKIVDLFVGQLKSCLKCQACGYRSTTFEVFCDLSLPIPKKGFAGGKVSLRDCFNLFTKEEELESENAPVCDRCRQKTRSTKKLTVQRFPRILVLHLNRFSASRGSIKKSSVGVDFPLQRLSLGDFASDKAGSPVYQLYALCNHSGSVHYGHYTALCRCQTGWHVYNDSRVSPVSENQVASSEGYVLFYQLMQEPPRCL

[2] = biological target: Ubiquitin carboxyl-terminal hydrolase isozyme L1 (Homo sapiens) (UniProt P09936); assay: Inhibition of human UCHL1 at 31 uM
Ubiquitin carboxyl-terminal hydrolase isozyme L1 (Homo sapiens), sequence (P09936 whole entry, looked up, the tested form may be a part): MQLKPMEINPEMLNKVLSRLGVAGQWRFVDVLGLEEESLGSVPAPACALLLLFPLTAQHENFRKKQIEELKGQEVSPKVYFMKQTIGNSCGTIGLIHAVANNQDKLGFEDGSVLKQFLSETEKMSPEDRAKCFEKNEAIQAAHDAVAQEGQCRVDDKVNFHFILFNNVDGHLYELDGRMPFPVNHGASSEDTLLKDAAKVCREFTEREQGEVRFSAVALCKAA

[3] = biological target: Replicase polyprotein 1a (Human coronavirus NL63) (UniProt P0C6U6); assay: (§1) Inhibition of human coronavirus NL63 PLP2 (amino acids 1565 to 1894) expressed in Escherichia coli BL21 (DE3) cells assessed as reduction of AMC release using Z-RLRGG-AMC as substrate by multimode plate reader analysis
Replicase polyprotein 1a (Human coronavirus NL63), sequence (P0C6U6 899-2462 limits assumed): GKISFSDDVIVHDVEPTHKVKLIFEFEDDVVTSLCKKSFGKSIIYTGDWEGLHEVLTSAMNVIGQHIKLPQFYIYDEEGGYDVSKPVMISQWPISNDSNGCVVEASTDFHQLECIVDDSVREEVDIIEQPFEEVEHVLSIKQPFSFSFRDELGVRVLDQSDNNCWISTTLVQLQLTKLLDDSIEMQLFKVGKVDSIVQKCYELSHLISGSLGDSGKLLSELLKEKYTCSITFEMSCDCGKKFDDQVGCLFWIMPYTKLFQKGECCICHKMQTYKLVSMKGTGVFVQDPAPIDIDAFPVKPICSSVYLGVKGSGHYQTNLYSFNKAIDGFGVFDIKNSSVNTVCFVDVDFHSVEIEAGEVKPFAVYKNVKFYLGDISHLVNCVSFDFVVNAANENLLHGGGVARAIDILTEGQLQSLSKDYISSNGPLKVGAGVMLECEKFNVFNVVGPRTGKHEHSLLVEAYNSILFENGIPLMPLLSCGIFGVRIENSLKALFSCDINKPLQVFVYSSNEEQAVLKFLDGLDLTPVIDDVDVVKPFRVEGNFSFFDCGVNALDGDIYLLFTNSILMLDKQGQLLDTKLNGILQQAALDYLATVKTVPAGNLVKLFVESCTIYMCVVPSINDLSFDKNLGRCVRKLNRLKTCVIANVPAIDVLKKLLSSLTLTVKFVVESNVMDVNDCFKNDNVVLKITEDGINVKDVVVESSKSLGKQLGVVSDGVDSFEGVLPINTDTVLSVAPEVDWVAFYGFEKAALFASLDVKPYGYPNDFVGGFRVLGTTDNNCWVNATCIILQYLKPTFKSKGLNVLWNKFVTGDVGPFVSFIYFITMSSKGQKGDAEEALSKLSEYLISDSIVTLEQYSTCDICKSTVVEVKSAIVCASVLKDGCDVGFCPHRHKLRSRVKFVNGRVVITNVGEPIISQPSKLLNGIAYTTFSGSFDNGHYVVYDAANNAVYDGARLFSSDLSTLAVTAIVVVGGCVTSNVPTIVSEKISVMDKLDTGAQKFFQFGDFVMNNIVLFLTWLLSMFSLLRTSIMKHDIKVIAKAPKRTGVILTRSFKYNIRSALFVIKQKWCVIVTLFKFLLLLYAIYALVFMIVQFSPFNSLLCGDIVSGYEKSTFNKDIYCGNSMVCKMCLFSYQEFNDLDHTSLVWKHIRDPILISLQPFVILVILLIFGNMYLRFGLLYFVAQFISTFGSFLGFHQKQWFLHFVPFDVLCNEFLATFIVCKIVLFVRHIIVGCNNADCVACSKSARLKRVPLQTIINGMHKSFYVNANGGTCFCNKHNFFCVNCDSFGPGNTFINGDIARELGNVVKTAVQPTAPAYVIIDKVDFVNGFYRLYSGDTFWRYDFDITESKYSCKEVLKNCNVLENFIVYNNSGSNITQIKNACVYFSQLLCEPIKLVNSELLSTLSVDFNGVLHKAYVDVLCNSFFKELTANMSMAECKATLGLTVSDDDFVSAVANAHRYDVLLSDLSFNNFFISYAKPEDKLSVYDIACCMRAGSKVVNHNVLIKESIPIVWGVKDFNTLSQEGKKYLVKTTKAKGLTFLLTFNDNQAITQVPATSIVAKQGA

[4] = biological target: Replicase polyprotein 1a (Human coronavirus NL63, UniProt P0C6U6); assay: as §1
[5] = biological target: Ubiquitin carboxyl-terminal hydrolase 7 (Homo sapiens, UniProt Q93009); assay: Inhibition of human USP7 using Ub-rhodamine 110 as substrate at 31 uM
Ubiquitin carboxyl-terminal hydrolase 7, sequence (Q93009 whole entry, looked up): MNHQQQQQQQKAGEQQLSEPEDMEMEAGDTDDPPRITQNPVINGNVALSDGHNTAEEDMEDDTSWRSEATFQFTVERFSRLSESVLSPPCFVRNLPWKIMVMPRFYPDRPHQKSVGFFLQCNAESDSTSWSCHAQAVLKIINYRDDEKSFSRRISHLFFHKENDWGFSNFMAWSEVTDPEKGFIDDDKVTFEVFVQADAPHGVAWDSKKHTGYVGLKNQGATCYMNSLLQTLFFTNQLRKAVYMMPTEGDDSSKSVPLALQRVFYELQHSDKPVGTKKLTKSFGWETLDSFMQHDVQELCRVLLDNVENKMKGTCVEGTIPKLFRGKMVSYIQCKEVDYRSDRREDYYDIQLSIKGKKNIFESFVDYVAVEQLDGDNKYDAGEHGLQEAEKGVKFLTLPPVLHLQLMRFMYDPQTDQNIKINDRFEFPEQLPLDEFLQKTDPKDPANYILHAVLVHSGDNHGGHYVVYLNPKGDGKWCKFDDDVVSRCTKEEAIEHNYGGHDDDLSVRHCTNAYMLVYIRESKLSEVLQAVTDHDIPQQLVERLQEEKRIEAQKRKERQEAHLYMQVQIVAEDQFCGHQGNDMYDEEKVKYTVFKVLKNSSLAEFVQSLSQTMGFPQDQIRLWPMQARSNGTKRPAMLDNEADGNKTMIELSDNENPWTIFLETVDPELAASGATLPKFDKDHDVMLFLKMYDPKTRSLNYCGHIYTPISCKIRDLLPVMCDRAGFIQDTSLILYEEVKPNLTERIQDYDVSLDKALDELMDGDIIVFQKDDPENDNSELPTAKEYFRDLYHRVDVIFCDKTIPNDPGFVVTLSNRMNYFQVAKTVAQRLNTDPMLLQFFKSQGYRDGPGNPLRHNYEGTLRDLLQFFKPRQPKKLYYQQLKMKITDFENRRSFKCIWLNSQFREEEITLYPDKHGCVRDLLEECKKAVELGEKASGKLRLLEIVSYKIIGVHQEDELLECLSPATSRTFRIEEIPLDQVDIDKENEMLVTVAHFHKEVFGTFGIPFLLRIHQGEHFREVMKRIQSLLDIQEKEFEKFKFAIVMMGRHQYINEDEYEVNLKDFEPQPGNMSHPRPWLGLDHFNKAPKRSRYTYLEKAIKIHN

[6] = biological target: T2, Ubiquitin carboxyl-terminal hydrolase 20 (Homo sapiens, UniProt Q9Y2K6); assay: Inhibition of human USP20 using Ub-rhodamine 110 as substrate
T2 sequence (Q9Y2K6 whole entry): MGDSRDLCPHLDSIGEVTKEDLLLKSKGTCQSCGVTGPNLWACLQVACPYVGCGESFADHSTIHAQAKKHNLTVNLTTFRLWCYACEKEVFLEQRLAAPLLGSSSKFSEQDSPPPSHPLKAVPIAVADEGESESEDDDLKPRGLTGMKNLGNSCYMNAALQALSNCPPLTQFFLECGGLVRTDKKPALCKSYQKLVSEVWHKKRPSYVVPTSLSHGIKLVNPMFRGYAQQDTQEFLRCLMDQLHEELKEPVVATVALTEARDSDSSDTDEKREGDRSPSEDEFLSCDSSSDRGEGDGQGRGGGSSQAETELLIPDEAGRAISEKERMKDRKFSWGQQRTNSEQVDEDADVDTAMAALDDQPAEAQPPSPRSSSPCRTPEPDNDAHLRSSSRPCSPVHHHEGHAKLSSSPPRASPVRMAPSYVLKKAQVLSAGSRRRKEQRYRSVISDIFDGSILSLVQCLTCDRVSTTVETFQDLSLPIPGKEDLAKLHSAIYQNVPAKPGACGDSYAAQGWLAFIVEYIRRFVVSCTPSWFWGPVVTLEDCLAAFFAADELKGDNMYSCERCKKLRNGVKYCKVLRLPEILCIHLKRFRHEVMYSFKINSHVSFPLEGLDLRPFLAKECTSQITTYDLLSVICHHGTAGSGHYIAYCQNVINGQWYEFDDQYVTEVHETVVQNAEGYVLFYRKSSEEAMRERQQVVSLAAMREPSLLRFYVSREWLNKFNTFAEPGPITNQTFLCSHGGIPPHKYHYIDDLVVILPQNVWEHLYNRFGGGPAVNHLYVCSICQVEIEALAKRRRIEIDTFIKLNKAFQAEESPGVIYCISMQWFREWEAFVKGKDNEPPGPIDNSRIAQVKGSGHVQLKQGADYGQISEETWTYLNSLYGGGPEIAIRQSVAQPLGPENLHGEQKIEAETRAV

[7] = biological target: T3, Cathepsin K (Homo sapiens, UniProt P43235); assay: Inhibition of human cathepsin K using fluorogenic peptide as substrate
T3 sequence (P43235 whole entry): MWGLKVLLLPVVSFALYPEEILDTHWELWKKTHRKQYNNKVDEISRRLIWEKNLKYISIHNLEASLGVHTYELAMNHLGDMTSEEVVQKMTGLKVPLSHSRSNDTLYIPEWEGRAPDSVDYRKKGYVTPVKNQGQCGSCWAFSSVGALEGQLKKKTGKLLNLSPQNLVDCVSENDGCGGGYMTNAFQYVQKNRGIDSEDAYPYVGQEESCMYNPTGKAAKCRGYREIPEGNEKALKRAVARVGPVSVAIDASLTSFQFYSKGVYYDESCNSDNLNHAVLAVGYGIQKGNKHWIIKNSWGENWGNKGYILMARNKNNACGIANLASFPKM

[8] = biological target: T4, Sentrin-specific protease 8 (Homo sapiens) (UniProt Q96LD8); assay: Inhibition of human DEN1 using Nedd8-EKL as substrate at 31 uM
T4 sequence (whole entry): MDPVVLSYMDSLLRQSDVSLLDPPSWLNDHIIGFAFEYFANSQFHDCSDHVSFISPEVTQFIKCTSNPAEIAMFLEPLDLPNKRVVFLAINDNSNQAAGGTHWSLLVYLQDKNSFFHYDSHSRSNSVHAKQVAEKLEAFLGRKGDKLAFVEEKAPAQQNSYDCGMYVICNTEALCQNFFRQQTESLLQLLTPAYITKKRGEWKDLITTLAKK

[9] = biological target: T2, Ubiquitin carboxyl-terminal hydrolase 20; assay: Inhibition of human USP20 using Ub-rhodamine 110 as substrate at 31 uM
[10] = system: BL21-DE3; assay: Inhibition of SARS coronavirus papain-like protease (amino acids 1541 to 1855) expressed in Escherichia coli BL21 (DE3) cells assessed as decrease in AMC release using Z-RLRGG-AMC as substrate by serum shift assay based multimode plate reader analysis in presence of 5 to 20% human serum albumin; conditions: Severe acute respiratory syndrome-related coronavirus
[11] = (§2) Inhibition of SARS coronavirus papain-like protease (amino acids 1541 to 1855) expressed in Escherichia coli BL21 (DE3) cells assessed as decrease in AMC release using Z-RLRGG-AMC as substrate by multimode plate reader analysis; set-up: species or system Severe acute respiratory syndrome-related coronavirus
[12] = system: BL21-DE3; assay: as §2; conditions: Severe acute respiratory syndrome-related coronavirus

SMILES	inhibition [1] [%]	inhibition [2] [%]	Imax [3] [%]	IC50 [4] [µM]	inhibition [5] [%]	IC50 ([6]; read-out: IC50) [µM]	IC50 [7]	inhibition [8] [%]	inhibition [9] [%]	inhibition [10]	IC50 [11] [µM]	Imax [12] [%]	IC50 [6]
CC(=O)Nc1cccc(CNC(=O)C2CCN([C@H](C)c3cccc4ccccc34)CC2)c1	15	< 10	71	46	10	> 100	Not Active	< 10	10	Active	0.39	100	
C[C@H](c1cccc2ccccc12)N1CCC(C(=O)NCc2ccc(F)cc2)CC1	15	< 10			< 10	> 100	Not Active	< 10	10	Active	0.49		
C[C@H](c1cccc2ccccc12)N1CCC(C(=O)NCc2ccc3c(c2)OCO3)CC1	15	< 10	46	18	< 10		Not Active	< 10	< 10	Active	0.67	99	Not Active
C[C@H](c1cccc2ccccc12)N1CCC(C(=O)NCc2cccc(F)c2)CC1	15	< 10	57	33	< 10	> 100	Not Active	< 10	10	Active	0.15	100	
